Data from PubChem BioAssay AID248 (DTP/NCI, 2004).
“And” between values parts separate entries of the source, which are not always exact repeats. Equal values may be shown once. Toxic doses and inconclusive results are not listed. No stated cut-off is given here; in the data, active means T/C of 150% or more; inactive means T/C below 125%.

System: L1210 leukemia ip in BDF1 mice, survival T/C
Assay: NCI In Vivo Anticancer Drug Screen. Data for tumor model L1210 Leukemia (intraperitoneal) in B6D2F1 (BDF1) mice
Conditions: endpoint: mean survival time, higher = longer survival
Outline: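 Survival endpoint. Drug-treated group vs vehicle group, expressed as T divided by C. Tumor passaged by transplantation.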

[1] = dose: 100.0 mg/kg/injection, schedule: Q04DX003 (ip), vehicle: Klucel (hydroxypropylcellulose) (HPC)
[2] = dose: 200.0 mg/kg/injection, schedule: Q04DX003 (ip), vehicle: Klucel (hydroxypropylcellulose) (HPC)
[3] = dose: 400.0 mg/kg/injection, schedule: Q04DX003 (ip), vehicle: Klucel (hydroxypropylcellulose) (HPC)
[4] = dose: 100.0 mg/kg/injection, schedule: Q01DX009 (ip), vehicle: saline with Tween-80
[5] = dose: 200.0 mg/kg/injection, schedule: Q01DX009 (ip), vehicle: saline with Tween-80
[6] = dose: 100.0 mg/kg/injection, schedule: Q01DX001 (ip), vehicle: saline
[7] = dose: 200.0 mg/kg/injection, schedule: Q01DX001 (ip), vehicle: saline
[8] = dose: 400.0 mg/kg/injection, schedule: Q01DX001 (ip), vehicle: saline
[9] = dose: 100.0 mg/kg/injection, schedule: Q01DX001 (ip), vehicle: carboxymethylcellulose (CMC)
[10] = dose: 200.0 mg/kg/injection, schedule: Q01DX001 (ip), vehicle: carboxymethylcellulose (CMC)
[11] = dose: 400.0 mg/kg/injection, schedule: Q01DX001 (ip), vehicle: carboxymethylcellulose (CMC)
[12] = dose: 100.0 mg/kg/injection, schedule: Q04DX003 (ip), vehicle: saline
[13] = dose: 100.0 mg/kg/injection, schedule: Q04DX003 (ip), vehicle: saline with Tween-80
[14] = dose: 200.0 mg/kg/injection, schedule: Q04DX003 (ip), vehicle: saline with Tween-80
[15] = dose: 100.0 mg/kg/injection, schedule: Q01DX009 (ip), vehicle: Klucel (hydroxypropylcellulose) (HPC)
[16] = dose: 200.0 mg/kg/injection, schedule: Q01DX009 (ip), vehicle: Klucel (hydroxypropylcellulose) (HPC)
[17] = dose: 400.0 mg/kg/injection, schedule: Q01DX009 (ip), vehicle: Klucel (hydroxypropylcellulose) (HPC)
[18] = dose: 50.0 mg/kg/injection, schedule: Q01DX009 (ip), vehicle: Klucel (hydroxypropylcellulose) (HPC)

Measured: T/C

c1ccc(-c2sc(-c3ccccc3)c(-c3ccccc3)c2-c2ccccc2)cc1
inactive: [1] 93 % of control | [2] 95 % of control | [3] 95 % of control

CN(C)c1ccc(/C=N/NC(=O)C(O)(c2ccccc2)c2ccccc2)cc1
inactive: [4] 98 % of control | [5] 98 % of control | dose: 400.0 mg/kg/injection, schedule: Q01DX009 (ip), vehicle: saline with Tween-80 88 % of control

COC(=O)C12CCC1(Cl)CC2 (stereo not drawn)
inactive: [6] 94 % of control | [7] 95 % of control | [8] 100 % of control

CNC(=O)c1cn(C2OC(CO)C(O)C2O)c2ncnc(N)c12 (stereo not drawn)
inactive: dose: 88.0 mg/kg/injection, schedule: Q01DX001 (ip), vehicle: water 120 % of control | dose: 400.0 mg/kg/injection, schedule: Q01DX001 (ip), vehicle: water 117 % of control

COc1ccc(C(=S)N2CCN(c3ccc(Cl)cc3)CC2)cc1
inactive: [6] 95 % of control | [7] 95 % of control | [8] 95 % of control

O=C(O)/C=C/C(=O)Nc1ccc(Br)c(Cl)c1
inactive: [4] 86 % of control

CC/C=C\CCCCCCO
inactive: [9] 97 % of control and 94 % of control | [10] 94 % of control | [11] 89 % of control and 97 % of control

Cc1ccc(S(=O)(=O)OCCCN(CCCOS(=O)(=O)c2ccc(C)cc2)c2ccccc2)cc1
inactive: dose: 50.0 mg/kg/injection, schedule: Q01DX001 (ip), vehicle: saline 101 % of control | [6] 86 % of control | [7] 95 % of control | [8] 95 % of control

CC(=O)OC1C(CF)OC(n2cnc3c(Cl)ncnc32)C1OC(C)=O (stereo not drawn)
inactive: dose: 100.0 mg/kg/injection, schedule: Q01DX005 (ip), vehicle: saline 98 % of control | dose: 200.0 mg/kg/injection, schedule: Q01DX005 (ip), vehicle: saline 97 % of control

CCSc1cc(C(=O)O)cc([N+](=O)[O-])c1
inactive: [12] 104 % of control | dose: 200.0 mg/kg/injection, schedule: Q04DX003 (ip), vehicle: saline 93 % of control | dose: 400.0 mg/kg/injection, schedule: Q04DX003 (ip), vehicle: saline 94 % of control

CCOC(=O)Nc1ccccc1-c1ccccc1
inactive: dose: 100.0 mg/kg/injection, schedule: Q04DX002 (sc), vehicle: olive oil, sesame oil, peanut oil 94 % of control | dose: 200.0 mg/kg/injection, schedule: Q04DX002 (sc), vehicle: olive oil, sesame oil, peanut oil 105 % of control | dose: 400.0 mg/kg/injection, schedule: Q04DX002 (sc), vehicle: olive oil, sesame oil, peanut oil 97 % of control

OC1C2CCN(CC2)C1CN1CC=C(c2ccccc2)CC1 (stereo not drawn)
inactive: dose: 25.0 mg/kg/injection, schedule: Q04DX003 (ip), vehicle: saline 104 % of control | dose: 50.0 mg/kg/injection, schedule: Q04DX003 (ip), vehicle: saline 101 % of control | [12] 98 % of control

CC(=O)Oc1ccc(Cl)cc1Cl
inactive: [13] 100 % of control | [14] 97 % of control

CC/C(=N/NC(N)=O)c1ccccc1Cl
inactive: [6] 97 % of control | [7] 96 % of control | [8] 106 % of control

O=C(CC(=Nc1ccccc1)c1ccccc1)c1ccccc1.O=C(CC(=Nc1ccccc1)c1ccccc1)c1ccccc1.[Cu]
inactive: dose: 50.0 mg/kg/injection, schedule: Q04DX003 (ip), vehicle: saline with Tween-80 89 % of control | [13] 90 % of control

CCCCCCCCCCCCCCCCS(=O)(=O)N/N=C/c1ccc(NC(C)=O)cc1
inactive: [9] 98 % of control | [10] 95 % of control | [11] 103 % of control

Cc1cc(N(CCOS(C)(=O)=O)CCOS(C)(=O)=O)ccc1C=Nc1ccc2ccccc2c1
inactive: dose: 13.3 mg/kg/injection, schedule: Q04DX003 (ip), vehicle: Klucel (hydroxypropylcellulose) (HPC) 116 % of control | dose: 20.0 mg/kg/injection, schedule: Q04DX003 (ip), vehicle: Klucel (hydroxypropylcellulose) (HPC) 108 % of control and 117 % of control | dose: 80.0 mg/kg/injection, schedule: Q04DX003 (ip), vehicle: Klucel (hydroxypropylcellulose) (HPC) 112 % of control

CCN(CC)C(=O)C1(C)CCCC2(C)c3cc(OC(C)=O)ccc3CCC12 (stereo not drawn)
inactive: [15] 92 % of control | [1] 108 % of control | [16] 87 % of control | [2] 100 % of control | [3] 100 % of control

O=C1OC(=C(c2ccccc2)c2ccccc2)c2ccccc21
inactive: dose: 100.0 mg/kg/injection, schedule: Q01DX009 (ip), vehicle: saline 100 % of control | [13] 96 % of control | dose: 200.0 mg/kg/injection, schedule: Q01DX009 (ip), vehicle: saline 100 % of control | [14] 96 % of control | dose: 400.0 mg/kg/injection, schedule: Q04DX003 (ip), vehicle: saline with Tween-80 90 % of control

CCSP(N)(=O)c1ccccc1 (stereo not drawn)
inactive: dose: 75.0 mg/kg/injection, schedule: Q01DX001 (ip), vehicle: saline 101 % of control

CC(C)=CCc1ccc(Cl)cc1
inactive: dose: 50.0 mg/kg/injection, schedule: Q01DX009 (ip), vehicle: saline with Tween-80 94 % of control | [4] 105 % of control | [5] 102 % of control

COC(=O)c1ccccc1N=NNc1ccc(-c2nc(N)nc(N)n2)cc1
inactive: [1] 100 % of control | [16] 100 % of control | [2] 94 % of control | [17] 100 % of control | [3] 95 % of control

Nc1nc2nc(-c3ccccc3)[nH]c2c(=O)[nH]1
inactive: [1] 98 % of control | [2] 101 % of control | [3] 93 % of control

CCCCn1c(C)nc2c(N)cc(C(F)(F)F)cc21
inactive: dose: 200.0 mg/kg/injection, schedule: Q01DX001 (ip), vehicle: Klucel (hydroxypropylcellulose) (HPC) 100 % of control | dose: 400.0 mg/kg/injection, schedule: Q01DX001 (ip), vehicle: Klucel (hydroxypropylcellulose) (HPC) 111 % of control

c1ccc(SCC2C3CSC4C3CC2C4Sc2ccccc2)cc1 (stereo not drawn)
inactive: dose: 100.0 mg/kg/injection, schedule: Q01DX001 (ip), vehicle: saline with Tween-80 98 % of control | dose: 200.0 mg/kg/injection, schedule: Q01DX001 (ip), vehicle: saline with Tween-80 105 % of control | dose: 400.0 mg/kg/injection, schedule: Q01DX001 (ip), vehicle: saline with Tween-80 94 % of control

CCOP(=O)(CCBr)Oc1ccc([N+](=O)[O-])cc1 (stereo not drawn)
inactive: dose: 0.5 mg/kg/injection, schedule: Q01DX001 (ip), vehicle: saline 97 % of control | dose: 1.0 mg/kg/injection, schedule: Q01DX001 (ip), vehicle: saline 97 % of control | dose: 2.0 mg/kg/injection, schedule: Q01DX001 (ip), vehicle: saline 103 % of control | dose: 4.0 mg/kg/injection, schedule: Q01DX001 (ip), vehicle: saline 107 % of control

CN(C)Cc1cccc2ccccc12
inactive: [18] 95 % of control

CCN(CC)C(=S)SSC(=S)N(CC)CC
inactive: dose: 25.0 mg/kg/injection, schedule: Q01DX009 (ip), vehicle: Klucel (hydroxypropylcellulose) (HPC) 100 % of control | dose: 25.0 mg/kg/injection, schedule: Q04DX003 (ip), vehicle: Klucel (hydroxypropylcellulose) (HPC) 93 % of control | [18] 100 % of control | dose: 50.0 mg/kg/injection, schedule: Q04DX003 (ip), vehicle: Klucel (hydroxypropylcellulose) (HPC) 93 % of control | [15] 91 % of control | [1] 96 % of control and 98 % of control | [16] 98 % of control and 101 % of control | [2] 88 % of control and 91 % of control | [17] 96 % of control and 100 % of control | [3] 93 % of control and 96 % of control
